The record followed here is US6472348B1, “Pyridone derivatives and herbicides” (Kumiai Chemical Industry Co., Ltd., priority 1996, dated 2002).

Common to all, as to assay type: in vivo
For test [1], the system named is China jute (Ab). Briefly: Test Example 5: crop plant selectivity by upland field soil treatment (wheat), herbicidal effects. More on the design: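 grade of growth control; 5 = at least 90%; 4 = 70 to 90%; 3 = 50 to 70%; 2 = 30 to 50%; 1 = 10 to 30%; 0 = under 10%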. The settings on record: 21st day after application. The gist of the method: (§1)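 Upland soil treatment test: crop and weed species sown in sand-filled pots and covered with soil before compound application. Visual scoring of weed control and wheat injury 21 days post-application, plants kept in a greenhouse, using a standard rating scale.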

For test [2], the system named is common lambsquarters (Ch). The test is described as above. More on the design: scale not given here. The settings on record: 21st day after application. In a few lines:
as §1

Test [3] deals with green foxtail (Se). The description is as above. More on the design: scale not given here. As to conditions: 21st day after application. In a few lines:
as §1

The test system of test [4] is pale smartweed (Po). The test is described as above. Further details: scale not given here. As to conditions: 21st day after application. The gist of the method: as §1
In test [5] the test system is slender amaranth (Am). The description is as above. As to conditions: 21st day after application. More on the design: scale not given here. The gist of the method:
as §1

For test [6], the system named is China jute (Ab). Briefly: Test Example 7: crop plant selectivity by upland field soil treatment (corn), herbicidal effects. Further details: scale not given here. As to conditions: 21st day after application. The gist of the method:
(§2)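 Greenhouse pot test: scores for herbicidal effect and corn phytotoxicity were given 21 days after soil treatment, against set rating standards. Crop and weed species (foxtail, smartweed, amaranth, lambsquarters, China jute) were sown together in sand and covered with soil beforehand.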

Test [7] concerns green foxtail (Se). The test is described as above. More on the design: scale not given here. The settings on record: 21st day after application. In a few lines:
as §2

In test [8] the test system is pale smartweed (Po). The description is as above. More on the design: scale not given here. The settings on record: 21st day after application. In a few lines: as §2
Test [9] deals with China jute (Ab). Briefly: Test Example 10: crop plant selectivity by upland field foliage treatment (soybean), herbicidal effects. The settings on record: dose 1.6 g ai/10a, 14th day after treatment. The procedure: (§3) (Test on Crop Plant Selectivity by Upland Field Foliage Treatment)
(§4) In a plastic pot (surface area: 600 cm^2) filled with sand, soybean (Gl), pale smartweed (Po), slender amaranth (Am), common lambsquarters (Ch) and China jute (Ab) were sown and cultured in a green house for 2 weeks. […] The plants were then cultured in a green house, and the evaluation of the herbicidal effects and phytotoxicity was conducted on the 14th day after the treatment in accordance with the standards as identified in Table 47.

Test [10] relates to common lambsquarters (Ch). Described as above. As to conditions: dose 1.6 g ai/10a, 14th day after treatment. The procedure: as §3, §4
Test [11] concerns pale smartweed (Po). The test is described as above. The settings on record: dose 1.6 g ai/10a, 14th day after treatment. The procedure:
as §3, §4

Test [12] relates to slender amaranth (Am). Described as above. As to conditions: dose 1.6 g ai/10a, 14th day after treatment. The procedure: as §3, §4

Structures are written as SMILES.

Consider `CCc1cc2c(-c3ccc(C(F)(F)F)n(C)c3=O)c(F)cc(Cl)c2o1` [Compound 4-2], for which the “Herbicidal effects Ab” value in the test on China jute (Ab) [1] (dose 1.6 g ai/10a), with China jute (Ab) [6] (dose 1.6 g ai/10a) and with China jute (Ab) [6] (dose 6.3 g ai/10a) was 5 each time. Moreover, the “Herbicidal effects Ch” value in test [2] (dose 1.6 g ai/10a) is given as 5. Besides, the “Herbicidal effects Se” value with green foxtail (Se) [3] (dose 1.6 g ai/10a), in the test on green foxtail (Se) [7] (dose 1.6 g ai/10a) and in the test on green foxtail (Se) [7] (dose 6.3 g ai/10a) was 5 throughout. The “Herbicidal effects Po” value with pale smartweed (Po) [4] (dose 1.6 g ai/10a), with pale smartweed (Po) [8] (dose 1.6 g ai/10a) and in the test on pale smartweed (Po) [8] (dose 6.3 g ai/10a) was 5 throughout. For the same compound, the “Herbicidal effects Am” value in the test on slender amaranth (Am) [5] (dose 1.6 g ai/10a) is 5.
As to `CON=Cc1cc(-c2ccc(C(F)(F)F)n(C)c2=O)c(F)cc1Cl` [Compound No. 1-72, 5-(1-methyl-6-trifluoromethyl-2(1H)-pyridon-3-yl)-2-chloro-4-fluorobenzaldehydeoxime-O-methyl ether], the “Herbicidal effects Ab” value in the test on China jute (Ab) [1] (dose 1.6 g ai/10a) and in the test on China jute (Ab) [6] (dose 1.6 g ai/10a) was 5 in each case. The “Herbicidal effects Ch” value in test [2] (dose 1.6 g ai/10a) is on record as 5. The “Herbicidal effects Se” value in the test with green foxtail (Se) [3] (dose 1.6 g ai/10a) and in the test with green foxtail (Se) [7] (dose 1.6 g ai/10a) was 5 each time. Besides, the “Herbicidal effects Po” value in the test on pale smartweed (Po) [4] (dose 1.6 g ai/10a) and in the test with pale smartweed (Po) [8] (dose 1.6 g ai/10a) was 5 in each case. Moreover, the “Herbicidal effects Am” value with slender amaranth (Am) [5] (dose 1.6 g ai/10a) was 5.
As for `Cn1c(C(F)(F)F)ccc(-c2cc(C#N)c(Cl)cc2F)c1=O` [Compound No. 1-119, 3-(4-chloro-5-cyano-2-fluorophenyl)-1-methyl-6-trifluoromethyl-2(1H)-pyridone], the “Herbicidal effects Ab” value stood at 5 in the test with China jute (Ab) [6] (dose 6.3 g ai/10a) and 4 in the test with China jute (Ab) [9]. In the test with green foxtail (Se) [7] (dose 6.3 g ai/10a), the “Herbicidal effects Se” value was found to be 5. Moreover, the “Herbicidal effects Po” value in the test with pale smartweed (Po) [8] (dose 6.3 g ai/10a) and with pale smartweed (Po) [11] was 5 throughout. The “Herbicidal effects Ch” value in test [10] was found to be 5. In the test on slender amaranth (Am) [12], the “Herbicidal effects Am” value came out at 5.
In the case of `CCCC(=O)c1cc(-c2ccc(C(F)(F)F)n(C)c2=O)c(F)cc1Cl` [Compound No. 1-194, 3-[4-chloro-2-fluoro-5-(1-oxobutyl)phenyl]-1-methyl-6-trifluoromethyl-2(1H)-pyridone], the “Herbicidal effects Ab” value in the test with China jute (Ab) [1] (dose 6.3 g ai/10a) and in the test on China jute (Ab) [6] (dose 6.3 g ai/10a) was 5 throughout. The “Herbicidal effects Ch” value in test [2] (dose 6.3 g ai/10a) is on record as 5. The “Herbicidal effects Se” value in the test on green foxtail (Se) [3] (dose 6.3 g ai/10a) and with green foxtail (Se) [7] (dose 6.3 g ai/10a) was 5 in each case. In addition, the “Herbicidal effects Po” value in the test on pale smartweed (Po) [4] (dose 6.3 g ai/10a) and with pale smartweed (Po) [8] (dose 6.3 g ai/10a) was 5 in each case. In addition, in the test on slender amaranth (Am) [5] (dose 6.3 g ai/10a), the “Herbicidal effects Am” value is given as 5.
Turning to `C#CCn1c(=O)sc2cc(F)c(-c3ccc(C(F)(F)F)n(C)c3=O)cc21` [Compound No. 3-1, 3-[6-fluoro-3-(2-propynyl)-benzothiazolin-2-on-5-yl]-1-methyl-6-trifluoromethyl-2(1H)-pyridone], the “Herbicidal effects Ab” value in the test with China jute (Ab) [1] (dose 6.3 g ai/10a), in the test on China jute (Ab) [6] (dose 1.6 g ai/10a) and in the test on China jute (Ab) [6] (dose 6.3 g ai/10a) was 5 each time. Also, the “Herbicidal effects Ch” value in test [2] (dose 6.3 g ai/10a) is 5. Besides, the “Herbicidal effects Se” value with green foxtail (Se) [3] (dose 6.3 g ai/10a), with green foxtail (Se) [7] (dose 1.6 g ai/10a) and with green foxtail (Se) [7] (dose 6.3 g ai/10a) was 5 in each case. In addition, the “Herbicidal effects Po” value with pale smartweed (Po) [4] (dose 6.3 g ai/10a), in the test with pale smartweed (Po) [8] (dose 1.6 g ai/10a) and in the test with pale smartweed (Po) [8] (dose 6.3 g ai/10a) was 5 in each case. Further, in the test on slender amaranth (Am) [5] (dose 6.3 g ai/10a), the “Herbicidal effects Am” value is on record as 5.
For the compound `COCc1cc2c(-c3ccc(C(F)(F)F)n(C)c3=O)c(F)cc(Cl)c2o1` [Compound No. 4-4, 3-(7-chloro-5-fluoro-2-methoxymethylbenzofuran-4-yl)-1-methyl-6-trifluoromethyl-2-(1H)-pyridone], the “Herbicidal effects Ab” value in the test on China jute (Ab) [1] (dose 1.6 g ai/10a), in the test on China jute (Ab) [6] (dose 1.6 g ai/10a) and in the test on China jute (Ab) [6] (dose 6.3 g ai/10a) was 5 in each case. In addition, in test [2] (dose 1.6 g ai/10a), the “Herbicidal effects Ch” value is 5. For the same compound, the “Herbicidal effects Se” value with green foxtail (Se) [3] (dose 1.6 g ai/10a), in the test with green foxtail (Se) [7] (dose 1.6 g ai/10a) and with green foxtail (Se) [7] (dose 6.3 g ai/10a) was 5 in each case. Further, the “Herbicidal effects Po” value with pale smartweed (Po) [4] (dose 1.6 g ai/10a), in the test on pale smartweed (Po) [8] (dose 1.6 g ai/10a) and in the test on pale smartweed (Po) [8] (dose 6.3 g ai/10a) was 5 each time. Further, in the test on slender amaranth (Am) [5] (dose 1.6 g ai/10a), the “Herbicidal effects Am” value was 5.
For `Cn1c(C(F)(F)F)ccc(-c2c(F)cc(Cl)c3oc(CO)cc23)c1=O` [Compound No. 4-5, 3-(7-chloro-5-fluoro-2-hydroxymethylbenzofuran-4-yl)-1-methyl-6-trifluoromethyl-2-(1H)-pyridone], the “Herbicidal effects Ab” value in the test on China jute (Ab) [1] (dose 6.3 g ai/10a) and in the test on China jute (Ab) [6] (dose 6.3 g ai/10a) was 5 throughout. Moreover, the “Herbicidal effects Ch” value in test [2] (dose 6.3 g ai/10a) came out at 5. The “Herbicidal effects Se” value in the test on green foxtail (Se) [3] (dose 6.3 g ai/10a) and with green foxtail (Se) [7] (dose 6.3 g ai/10a) was 5 throughout. The “Herbicidal effects Po” value with pale smartweed (Po) [4] (dose 6.3 g ai/10a) and with pale smartweed (Po) [8] (dose 6.3 g ai/10a) was 5 in each case. In addition, in the test on slender amaranth (Am) [5] (dose 6.3 g ai/10a), the “Herbicidal effects Am” value is given as 5.
Take `Cn1c(C(F)(F)F)ccc(-c2c(F)cc(Cl)c3occc23)c1=O` [Compound No. 4-28, 3-(7-chloro-5-fluorobenzofuran-4-yl)-1-methyl-6-trifluoromethyl-2-(1H)-pyridone]: the “Herbicidal effects Ab” value in the test on China jute (Ab) [1] (dose 6.3 g ai/10a) and in the test with China jute (Ab) [6] (dose 1.6 g ai/10a) was 5 each time. Besides, in test [2] (dose 6.3 g ai/10a), the “Herbicidal effects Ch” value is on record as 5. Moreover, the “Herbicidal effects Se” value in the test on green foxtail (Se) [3] (dose 6.3 g ai/10a) and in the test with green foxtail (Se) [7] (dose 1.6 g ai/10a) was 5 in each case. The “Herbicidal effects Po” value in the test on pale smartweed (Po) [4] (dose 6.3 g ai/10a) and in the test on pale smartweed (Po) [8] (dose 1.6 g ai/10a) was 5 each time. The “Herbicidal effects Am” value in the test with slender amaranth (Am) [5] (dose 6.3 g ai/10a) worked out at 5.
